Experimental data taken from US20170312260A1 (LAUNX BIOMEDICAL CO., LTD., priority 2014, published 2017).
Several values for one entry are separate records, joined by “and”; a condition that tells them apart may be missing. Equal entries are not always repeated. Where two headings read alike, the source gives them in different places.

Columns and labels:
[1] = tested on: colorectal cancer cell line HCT116-wt; assay: WST-1 cell viability analysis, HCT116-wt; type: cell-based; settings: 72 hours, read-out: viability (survival rate) of HCT116-wt cells
Procedure: The cell numbers were counted and reseed as 2×10^6 in cell culture plate/flask. Then, the culture medium were added to a volume of 10 ml, and the cells were cultured for 2-3 days. Then, the cells were suspended for loading into 96-well plates. The number of cells was 3000 and the volume of the culture medium was 100 μl each well.
Removing the original culture medium from 96-well plate. Then add 100 μl of commercially drug at a concentration of 10 μM per well. After 72 hours, add the diluted WST-1 reagent to the well with 100 μl/well, and the diluted WST-1 reagent was acquired from the dilution of 9:1 medium and WST-1 stock reagent. Finally, the total volume of each well was 200 μl/well. Culture the 96-well plate at 37° C. for 30 to 90 minutes. Detecting and calculate the survival rate of each cancer cells with an ELISA reader at OD450 nm.

[2] = tested on: gastric cancer cells (AGS); assay: Animal model test, subcutaneous tumor in nude mice; type: in vivo, female mice (BALB/cAnN.Cg-Foxn1^nu/CrlNarl); settings: for tumor volume growth, average / tumor volume, average: average of mice; for tumor longest length / tumor volume / tumor volume growth / tumor width: single mice A-C
Procedure: Animal Model Test of […] with Dose 100 mg/kg/Day and 200 mg/kg/day
In this invention, the female mice were (BALB/cAnN.Cg-Foxn1^nu/CrlNarl) purchased from National Laboratory Animal Center (Taiwan)). The weight of the mice were 21±1 g. These mice were subcutaneously injected with gastric cancer cells (AGS) and then put these mice into different cages at random. The drug test experiment was divided into three groups, include “normal control group”, “low dose group (100 mg/kg/day)”, and “high dose group (200 mg/kg/day)”. These mice were then injected test drug intraperitoneally once daily […]. The tumor sizes and body weight were measured twice a week. The tumor sizes were measured and calculated by formula: (L×W^2)/2. L represents the tumor longest length. W represents the tumor shortest diameter.

[3] = high dose (200 mg/kg/day) i.p., Fifth measurement
[4] = high dose (200 mg/kg/day) i.p., First measurement
[5] = high dose (200 mg/kg/day) i.p., First measurement, 200 mg/kg/day
[6] = high dose (200 mg/kg/day) i.p., Fourth measurement
[7] = high dose (200 mg/kg/day) i.p., Second measurement
[8] = high dose (200 mg/kg/day) i.p., Second measurement, 200 mg/kg/day
[9] = high dose (200 mg/kg/day) i.p., Third measurement
[10] = low dose (100 mg/kg/day) i.p., Fifth measurement
[11] = low dose (100 mg/kg/day) i.p., First measurement
[12] = low dose (100 mg/kg/day) i.p., First measurement, 100 mg/kg/day
[13] = low dose (100 mg/kg/day) i.p., Fourth measurement
[14] = low dose (100 mg/kg/day) i.p., Second measurement
[15] = low dose (100 mg/kg/day) i.p., Second measurement, 100 mg/kg/day
[16] = low dose (100 mg/kg/day) i.p., Third measurement
[17] = low dose (100 mg/kg/day) i.p., Third measurement, 100 mg/kg/day

Structure (SMILES): CC1=C(C(=O)OC(C)C)C(c2cccc([N+](=O)[O-])c2)C(C(=O)OC2CN(C(c3ccccc3)c3ccccc3)C2)=C(N)N1 (centres unmarked) [Azelnidipine]
- viability at 10 µM ([1]; run 0602-30 min): 70.7%
- viability at 10 µM ([1]; run 0605-10 min): 146%
- viability at 10 µM ([1]; run 0607-10 min): 159%
- viability at 10 µM ([1]; run 0609-10 min): 69.3%
- tumor volume growth, average [2, 3]: 0 mm^3
- tumor volume, average [2, 3]: 0 mm^3
- tumor longest length [2, 3]: 0 mm
- tumor volume [2, 3]: 0 mm^3
- tumor volume growth [2, 3]: 0 mm^3
- tumor width [2, 3]: 0 mm
- tumor volume growth, average [2, 4]: 25.67 mm^3
- tumor volume, average [2, 4]: 25.67 mm^3
- tumor longest length [2, 5]: 4 mm and 6 mm
- tumor volume [2, 5]: 18 mm^3 and 27 mm^3 and 32 mm^3
- tumor volume growth [2, 5]: 18 mm^3 and 27 mm^3 and 32 mm^3
- tumor width [2, 5]: 3 mm and 4 mm
- tumor volume growth, average [2, 6]: −50 mm^3
- tumor volume, average [2, 6]: 0 mm^3
- tumor longest length [2, 6]: 0 mm
- tumor volume [2, 6]: 0 mm^3
- tumor width [2, 6]: 0 mm
- tumor volume growth, average [2, 7]: 57.67 mm^3
- tumor volume, average [2, 7]: 83.33 mm^3
- tumor width [2, 7]: 5 mm
- tumor longest length [2, 8]: 7 mm and 6 mm
- tumor volume [2, 8]: 87.5 mm^3 and 75 mm^3
- tumor volume growth [2, 8]: 69.5 mm^3 and 48 mm^3 and 55.5 mm^3
- tumor volume growth, average [2, 9]: −33.3333 mm^3
- tumor volume, average [2, 9]: 50 mm^3
- inhibition of tumor growth, high dose compared with low dose (in words) ([2]; high dose, FIG. 3): better effect to inhibit tumor growth
- tumor volume growth, average [2, 10]: 2.667 mm^3
- tumor volume, average [2, 10]: 22 mm^3
- tumor volume growth, average [2, 11]: 176.3333 mm^3
- tumor volume, average [2, 11]: 176.3333 mm^3
- tumor longest length [2, 12]: 8 mm and 6 mm and 7 mm
- tumor width [2, 12]: 8 mm and 7 mm and 6 mm
- tumor volume growth, average [2, 13]: −88 mm^3
- tumor volume, average [2, 13]: 19.33 mm^3
- tumor volume growth, average [2, 14]: −77.5 mm^3
- tumor volume, average [2, 14]: 98.83 mm^3
- tumor longest length [2, 15]: 7 mm and 6 mm and 5 mm
- tumor width [2, 15]: 6 mm and 5 mm
- tumor volume growth, average [2, 16]: 0 mm^3
- tumor volume, average [2, 16]: 98.83 mm^3
- tumor volume growth [2, 16]: 0 mm^3
- tumor longest length [2, 17]: 7 mm and 6 mm and 5 mm
- tumor width [2, 17]: 6 mm and 5 mm
- inhibition effect on tumor cells (in words) ([2]; low dose and high dose, FIG. 2): significant inhibition effect
- tumor volume (in words) ([2]; low dose and high dose, FIG. 3): reduce the tumor volume
- tumor volume growth (in words) ([2]; low dose and high dose, FIG. 3): effectively slow down the tumor volume growth
